Here are results for seven molecules from ChEMBL document CHEMBL4665691, “Callicarpins, Two Classes of Rearranged ent-Clerodane Diterpenoids from Callicarpa Plants Blocking NLRP3 Inflammasome-Induced Pyroptosis” (J Nat Prod, 2020).

One experiment has as its system J774.A1. The experiment can be described thus: Cytotoxicity against mouse J774.A1 cells by LDH release assay. It counts as functional, cell-based. The settings on record: Mus musculus, J774.A1.
Molecule `C[C@@H]1CC[C@]2(C)[C@H](CC(=O)[C@H]2C)[C@@]1(C)C[C@H](O)C1=CC(=O)OC1O` (some centres not stated) registered an IC50 of 1.4 µM.

`COC(=O)[C@H]1C[C@@H]2[C@@](C)(C[C@H](O)C3=CC(=O)OC3O)[C@H](C)CC[C@@]2(C)[C@@]1(C)O` (some centres not stated) registered an IC50 of 1.5 µM. Same read-out and setting: in the case of `CC(=O)O[C@@H]1CC[C@@H]2[C@@](C)(C[C@H](O)C3=CC(=O)O[C@@H]3OC(C)=O)[C@H](C)CC[C@@]2(C)C(=O)C1` it was 5.3 µM.

`C[C@@H]1CC[C@@]2(C)C(=O)C[C@H](O)CC[C@@H]2[C@@]1(C)C[C@H](O)C1=CC(=O)OC1O` (mixture of isomers) returned a concentration for half-maximal inhibition (IC50) of 25.4 µM. On the same count and under the same terms, under `C[C@@H]1CC[C@]2(C)[C@H](C[C@H](C(=O)O)[C@]2(C)O)[C@@]1(C)C[C@H](O)C1=CC(=O)OC1O` (some centres not stated) stands 24.7 µM.

Molecule `CC1=CCC[C@@H]2[C@@](C)(C[C@H](O)C3=CC(=O)OC3O)[C@H](C)CC[C@@]12C` (some centres not stated) had a concentration for half-maximal inhibition (IC50) of 3.6 µM.

The experiment is the same for the next values; noted with them: j774.a1.
As to `C[C@@H]1CC[C@@]2(C)C(=O)C[C@@H](O)CC[C@@H]2[C@@]1(C)C[C@H](O)C1=CC(=O)OC1O` (stereo in doubt; 1), the IC50 amounted to 16.6 µM.
